One assay deals with T1, GLUT1 (Homo sapiens, UniProt P11166).
T1 sequence (P11166 1-492): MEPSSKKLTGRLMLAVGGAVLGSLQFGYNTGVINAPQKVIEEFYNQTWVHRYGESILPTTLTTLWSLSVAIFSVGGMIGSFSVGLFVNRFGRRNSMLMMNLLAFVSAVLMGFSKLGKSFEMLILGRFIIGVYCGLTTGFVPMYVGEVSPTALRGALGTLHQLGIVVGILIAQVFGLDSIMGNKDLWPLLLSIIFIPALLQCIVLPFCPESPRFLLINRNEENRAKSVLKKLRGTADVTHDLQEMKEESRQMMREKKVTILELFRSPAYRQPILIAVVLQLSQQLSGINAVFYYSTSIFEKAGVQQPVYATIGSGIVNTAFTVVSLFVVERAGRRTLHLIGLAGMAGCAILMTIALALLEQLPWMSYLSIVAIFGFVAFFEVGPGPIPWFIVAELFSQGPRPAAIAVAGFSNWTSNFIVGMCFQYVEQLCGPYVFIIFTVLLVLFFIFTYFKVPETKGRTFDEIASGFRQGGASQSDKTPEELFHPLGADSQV
Put plainly: Indirect measurement of GLUT1 activity by quantification of intracellular ATP levels (glucose induced ATP increase). The assay is classed as cell-based. More on the design: endogenous in cells; host or cells: DLD1 or CHO-K1. The note with it: DLD1 cells; 0.1 mM glucose, 1 μM Rotenone, 15 min; CellTiter-Glo ATP readout; IC50 values standardized to cytochalasin B IC50 values; read-out: IC50 regarding glucose induced ATP increase (GLUT1 inhibition). Summed up: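 Intracellular ATP was measured by CellTiter-Glo luminescence as an indirect readout of transport: glucose-driven for GLUT1, fructose-driven for GLUT2. DLD1 or CHO-K1 cells were used alongside an oxidative phosphorylation inhibitor. Beforehand, cells were held overnight in glucose-free 1% FCS medium to deplete ATP.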
(ATP-based viability assays read luminescence as a measure of living cells.)
As for `Cc1c(NC(=O)c2cc(C(N)=O)nc3cc(F)ccc23)c(C(F)(F)F)nn1Cc1ccc(C#N)nn1` [Example 427, N^4-{1-[(6-cyanopyridazin-3-yl)methyl]-5-methyl-3-(trifluoromethyl)-1H-pyrazol-4-yl}-7-fluoroquinoline-2,4-dicarboxamide], the IC50 was 78.3 nM.

Staying with this assay, now noted: read-out: IC50 regarding glucose induced ATP increase (GLUT1 inhibition).
Turning to `Cc1cc(Cn2nc(C)c(NC(=O)c3cc(C(N)=O)nc4cc(F)c(Cl)cc34)c2C)on1` [Example 411, 6-chloro-N^4-{3,5-dimethyl-1-[(3-methyl-1,2-oxazol-5-yl)methyl]-1H-pyrazol-4-yl}-7-fluoroquinoline-2,4-dicarboxamide], the IC50 is 1.1 nM. For the compound `Cc1cc(Cn2nc(C)c(NC(=O)c3cc(C(N)=O)nc4cc(F)c(Cl)cc34)c2C)no1` [Example 412, 6-chloro-N^4-{3,5-dimethyl-1-[(5-methyl-1,2-oxazol-3-yl)methyl]-1H-pyrazol-4-yl}-7-fluoroquinoline-2,4-dicarboxamide], the IC50 was 2.1 nM.

With `CCS(=O)(=O)N1CCC(Cn2nc(C(F)(F)F)c(NC(=O)c3cc(C(N)=O)nc4cc(F)c(Cl)cc34)c2C)CC1` [Example 413, 6-chloro-N^4-[1-{[1-(ethylsulfonyl)piperidin-4-yl]methyl}-5-methyl-3-(trifluoromethyl)-1H-pyrazol-4-yl]-7-fluoroquinoline-2,4-dicarboxamide], the IC50 amounted to 5.6 nM. `CCc1cc(Cn2nc(C)c(NC(=O)c3cc(C(N)=O)nc4cc(F)c(Cl)cc34)c2C)on1` [Example 414, 6-chloro-N^4-{1-[(3-ethyl-1,2-oxazol-5-yl)methyl]-3,5-dimethyl-1H-pyrazol-4-yl}-7-fluoroquinoline-2,4-dicarboxamide]: the IC50 was found to be 1.3 nM. Regarding `Cc1nn(Cc2cc(C(C)C)no2)c(C)c1NC(=O)c1cc(C(N)=O)nc2cc(F)c(Cl)cc12` [Example 416, 6-chloro-N^4-(3,5-dimethyl-1-{[3-(propan-2-yl)-1,2-oxazol-5-yl]methyl}-1H-pyrazol-4-yl)-7-fluoroquinoline-2,4-dicarboxamide], the half-maximal inhibitory concentration (IC50) turned out to be 2.7 nM. The same measure, in the same setting: then `Cc1nn(Cc2cc(C3CC3)on2)c(C)c1NC(=O)c1cc(C(N)=O)nc2cc(F)c(Cl)cc12` [Example 417, 6-chloro-N^4-{1-[(5-cyclopropyl-1,2-oxazol-3-yl)methyl]-3,5-dimethyl-1H-pyrazol-4-yl}-7-fluoroquinoline-2,4-dicarboxamide], with 0.7 nM; and `Cc1nn(Cc2cc(C3CC3)on2)c(C)c1NC(=O)c1cc(C(N)=O)nc2cc(F)ccc12` [Example 418, N^4-{1-[(5-cyclopropyl-1,2-oxazol-3-yl)methyl]-3,5-dimethyl-1H-pyrazol-4-yl}-7-fluoroquinoline-2,4-dicarboxamide], with 4.1 nM; and `Cc1nn(Cc2cc(C3CC3)on2)c(C)c1NC(=O)c1cc(C(N)=O)nc2ccccc12` [Example 419, N^4-{1-[(5-cyclopropyl-1,2-oxazol-3-yl)methyl]-3,5-dimethyl-1H-pyrazol-4-yl}quinoline-2,4-dicarboxamide], with 4.2 nM. The same measure, in the same setting: then `Cc1cc(Cn2nc(C(F)(F)F)c(NC(=O)c3cc(C(N)=O)nc4cc(F)c(Cl)cc34)c2C)on1` [Example 420, 6-chloro-7-fluoro-N^4-{5-methyl-1-[(3-methyl-1,2-oxazol-5-yl)methyl]-3-(trifluoromethyl)-1H-pyrazol-4-yl}quinoline-2,4-dicarboxamide], with 4.9 nM; and `Cc1c(NC(=O)c2cc(C(N)=O)nc3cc(F)c(Cl)cc23)c(C(F)(F)F)nn1Cc1ccc(C#N)s1` [Example 421, 6-chloro-N^4-{1-[(5-cyano-2-thienyl)methyl]-5-methyl-3-(trifluoromethyl)-1H-pyrazol-4-yl}-7-fluoroquinoline-2,4-dicarboxamide], with 2.9 nM.

With `Cc1nn(Cc2ccc(C#N)s2)c(C)c1NC(=O)c1cc(C(N)=O)nc2cc(F)ccc12` [Example 422], the IC50 stood at 5 nM. Turning to `Cc1c(NC(=O)c2cc(C(N)=O)nc3cc(F)ccc23)c(C(F)(F)F)nn1Cc1ncc(C#N)cn1` [Example 423, N^4-{1-[(5-cyanopyrimidin-2-yl)methyl]-5-methyl-3-(trifluoromethyl)-1H-pyrazol-4-yl}-7-fluoroquinoline-2,4-dicarboxamide], the IC50 was 6.7 nM. Consider `Cc1c(NC(=O)c2cc(C(N)=O)nc3cccc(F)c23)c(C(F)(F)F)nn1Cc1ncc(C#N)cn1` [Example 424, N^4-{1-[(5-cyanopyrimidin-2-yl)methyl]-5-methyl-3-(trifluoromethyl)-1H-pyrazol-4-yl}-5-fluoroquinoline-2,4-dicarboxamide], for which the IC50 came out at 6.7 nM. With `Cc1c(NC(=O)c2cc(C(N)=O)nc3ccc(O)cc23)c(C(F)(F)F)nn1Cc1ccc(C#N)cc1` [Example 425, N^4-[1-(4-cyanobenzyl)-5-methyl-3-(trifluoromethyl)-1H-pyrazol-4-yl]-6-hydroxyquinoline-2,4-dicarboxamide], the IC50 was 4.9 nM. Regarding `Cc1c(NC(=O)c2cc(C(=O)NS(C)(=O)=O)nc3ccccc23)c(C(F)(F)F)nn1Cc1ccc(C#N)cc1` [Example 426, N^4-[1-(4-cyanobenzyl)-5-methyl-3-(trifluoromethyl)-1H-pyrazol-4-yl]-N^2-(methylsulfonyl)quinoline-2,4-dicarboxamide], the IC50 stood at 2530 nM. For `C=CCNC(=O)c1ccc(Cn2nc(C)c(NC(=O)c3cc(C(F)(F)F)nc4ccc(Br)cc34)c2C)cc1` [Example 1018], the IC50 came out at 1.9 nM. For `Cc1nn(Cc2ccc(C(=O)NC[C@@H](C)O)cc2)c(C)c1NC(=O)c1cc(C(F)(F)F)nc2ccc(Br)cc12` [Example 1019], the IC50 came out at 1.9 nM.

As to `CCCNC(=O)c1ccc(Cn2nc(C)c(NC(=O)c3cc(C(F)(F)F)nc4ccc(Br)cc34)c2C)cc1` [Example 1020], the IC50 turned out to be 1.9 nM. `Cc1nn(Cc2ccc(C(=O)NCc3ccncc3)cc2)c(C)c1NC(=O)c1cc(C(F)(F)F)nc2ccc(Br)cc12` [Example 1021]: the IC50 came to 2.3 nM. Consider `Cc1nn(Cc2ccc(C(=O)NCC#N)cc2)c(C)c1NC(=O)c1cc(C(F)(F)F)nc2ccc(Br)cc12` [Example 1022], for which the IC50 is 2.4 nM. `Cc1nn(Cc2ccc(C(=O)NC3CC3)cc2)c(C)c1NC(=O)c1cc(C(F)(F)F)nc2ccc(Br)cc12` [Example 1024]: the IC50 was determined as 2.7 nM. On to `COc1ccc(Cn2nc(C)c(NC(=O)c3cc(C(F)(F)F)nc4ccc(Br)cc34)c2C)cn1` [Example 1025], for which the IC50 came out at 2.8 nM. `COc1ccc(Cn2nc(C(F)(F)F)c(NC(=O)c3cc(C(F)(F)F)nc4ccc(Br)cc34)c2C)cn1` [Example 1027]: the IC50 came to 3 nM. On to `CCNC(=O)c1ccc(Cn2nc(C)c(NC(=O)c3cc(C(F)(F)F)nc4ccc(Br)cc34)c2C)cc1` [Example 1028], for which the IC50 was determined as 3 nM. As to `Cc1nn(Cc2ccc(C(=O)NCCF)cc2)c(C)c1NC(=O)c1cc(C(F)(F)F)nc2ccc(Br)cc12` [Example 1030], the IC50 came to 3.2 nM.

On to `Cc1nn(Cc2ccc(C(=O)N3CCCC3)cc2)c(C)c1NC(=O)c1cc(C(F)(F)F)nc2ccc(Br)cc12` [Example 1033], for which the IC50 was determined as 4.2 nM. For `COc1ccc(Cn2nc(C(F)(F)F)c(NC(=O)c3cc(C(F)(F)F)nc4ccc(Br)cc34)c2C)cc1` [Example 1035], the IC50 is 5 nM. On to `CNC(=O)c1c(NC(=O)c2cc(C(F)(F)F)nc3ccc(Br)cc23)c(C)nn1Cc1ccc(F)cc1` [Example 1036], for which the IC50 was 5.1 nM. Regarding `Cc1nn(Cc2ccc(C(=O)N3CCC3)cc2)c(C)c1NC(=O)c1cc(C(F)(F)F)nc2ccc(Br)cc12` [Example 1037], the concentration for half-maximal inhibition (IC50) came to 5.3 nM. As to `Cc1nn(Cc2ccc(C(=O)Nc3ccccc3C(N)=O)cc2)c(C)c1NC(=O)c1cc(C(F)(F)F)nc2ccc(Br)cc12` [Example 1038], the IC50 was 5.7 nM. With `COc1ccc(Cn2nc(C)c(NC(=O)c3cc(C(F)(F)F)nc4ccc(Br)cc34)c2C)cc1F` [Example 1039], the IC50 is 5.7 nM.

As to `Cc1nn(Cc2ccc(C(=O)Nc3ccccc3Cl)cc2)c(C)c1NC(=O)c1cc(C(F)(F)F)nc2ccc(Br)cc12` [Example 1040], the IC50 came to 6.7 nM.

In the case of `Cc1nn(Cc2ccc(C(=O)Nc3ccccc3)cn2)c(C)c1NC(=O)c1cc(C(F)(F)F)nc2ccc(Br)cc12` [Example 1041], the IC50 is 8.6 nM. On to `CNC(=O)N(C)CCNC(=O)c1ccc(Cn2nc(C)c(NC(=O)c3cc(C(F)(F)F)nc4ccc(Br)cc34)c2C)cc1` [Example 1043], for which the IC50 turned out to be 8.8 nM. For the compound `Cc1nn(Cc2ccc(C(=O)NCCCC(=O)N(C)C)cc2)c(C)c1NC(=O)c1cc(C(F)(F)F)nc2ccc(Br)cc12` [Example 1044], the IC50 was determined as 8.8 nM. `Cc1nn(Cc2ccc(C(=O)Nc3cccnc3)cc2)c(C)c1NC(=O)c1cc(C(F)(F)F)nc2ccc(Br)cc12` [Example 1045]: the IC50 came to 9.4 nM.

As for `Cc1nn(Cc2ccc(C(=O)NC[C@H](C)O)cc2)c(C)c1NC(=O)c1cc(C(F)(F)F)nc2ccc(Br)cc12` [Example 1046], the IC50 is 9.6 nM. On to `Cc1nn(Cc2ccc(C(=O)Nc3nccs3)cc2)c(C)c1NC(=O)c1cc(C(F)(F)F)nc2ccc(Br)cc12` [Example 1047], for which the IC50 amounted to 11.2 nM.

As usually defined, the IC50 is the concentration at which inhibition is half-maximal.
